Earlier results, collected in patent US20240139272A1, “USE OF A SPEARMINT EXTRACT FOR RETINA NEUROTROPHISM” (KEMIN INDUSTRIES, INC., priority 2022, published 2024).
Where two headings read alike, the source gives them in different places.

Test system: male Wistar rats
Conditions: for carrageenan-induced increase in paw volume (FIG. 1): 3 and 6 hours, spearmint extract at all doses, RA at the high dose (50 mg/kg), indomethacin 10 mg/kg

SMILES	paw volume increase compared to baseline (10 mg/kg intraperitoneal, 3 hours post-injection of carrageenan)	paw volume increase compared to baseline (10 mg/kg intraperitoneal, 6 hours post-injection of carrageenan)	carrageenan-induced increase in paw volume (FIG. 1)	paw volume increase compared to baseline (15 mg/kg intraperitoneal, 3 hours)	paw volume increase compared to baseline (15 mg/kg intraperitoneal, 6 hours)	paw volume increase compared to baseline (50 mg/kg intraperitoneal, 3 hours)	paw volume increase compared to baseline (50 mg/kg intraperitoneal, 6 hours)
COc1ccc2c(c1)c(CC(=O)O)c(C)n2C(=O)c1ccc(Cl)cc1 [Indomethacin]	6%	3%	substantially attenuated				
O=C(/C=C/c1ccc(O)c(O)c1)O[C@H](Cc1ccc(O)c(O)c1)C(=O)O [rosmarinic acid]			substantially attenuated	20%	10%	7%	5%
